Entries after “also recorded” stand apart in the source; their conditions may differ.
Columns and labels:
ΔF508-CFTR = ΔF508-CFTR (Homo sapiens, UniProt P13569, DEL508-508); assay type: cell-based; details: after corrector and CB; inh172 and glibenclamide as a mixture
[1] = molecular target: CFTR (WT-CFTR) Cl− channel (Homo sapiens, UniProt P13569); assay type: cell-based
CFTR channels (WT-CFTR) = CFTR channels (WT-CFTR) (Homo sapiens, UniProt P13569); assay type: cell-based; details: 100 μM glibenclamide and 10 μM inh172
From the text: HeLa cells stably transfected with WT-CFTR were kindly provided by Pascale Fanen (INSERM U955, Créteil, France). The intracellular side of the membrane patch was exposed to a solution containing (in mM): 150 N-methyl-D-gluconate chloride (NMDG-Cl), 0.5 MgCl2, 2 EGTA, 10 HEPES, 10 glucose, pH 7.4, adjusted to pH 7.4 with NMDG. The patch pipettes were filled with (in mM): 150 NMDG-Cl, 0.5 MgCl2, 2 EGTA, 10 HEPES, 10 glucose, 1 ATP-Mg adjusted to pH 7.4 with NMDG. CFTR channels were activated by addition of 40 nM PKA+1 mM ATP-Mg at the intracellular side of the patches. The presence of CFTR channels was verified by addition of 100 μM glibenclamide and 10 μM inh172. The effect of CB was tested by perfusion of 1 nM of CB in the intracellular solution in the presence of 40 nM PKA+0.05, 0.5, or 1 mM ATP-Mg. The currents were recorded as previously described^34. […] Currents were recorded with Bio-logic RK 400 patch-clamp amplifiers (Bio-Logic, Claix, France), monitored using PClamp9 software (Axon Instruments, Foster City, Calif., USA) and stored on a computer. […] We calculated channel activity (NPo) as <I>/i, where <I> is the time-averaged current passing through the channels on the patch with the closed current level as reference and i is the unit current amplitude.

[2] = test system: cAMP-dependent Cl− short-circuit current of mouse colon tissue; details: 100 μM bumetanide, basolateral side
Description: Mice were 32 to 38 weeks old and weighed 23 to 36 g. Pups were weaned at 21 days and fed solid mouse chow (Teklad 2018S, Harland). All mice were allowed food and water ad libitum until the time of sacrifice by cervical dislocation. Colons were dissected, cut in 4 pieces from rectum to lower intestine. The fragments from colon were introduced immediately into Ussing chambers for subsequent short-circuit experiments.
Transepithelial transport measurements were performed as described previously^33 in the short-circuit mode (6 mice and 17 tissus). […] The excised colon were stripped of external muscle layers and mounted in Ussing chambers (0.018 cm^2 aperture). Hemichambers were connected to a DVC-1000 voltage clamp (World Precision Instruments, Inc., Sarasota, Fla.) via Ag/AgCl electrodes and 3 M KCl agar bridges for recording of short-circuit current. Currents were stored on a computer using analog-to-digital converter (PowerLab) and LabChart software 5.0. Prior to the experiment, prostaglandin generation was blocked with 10 μM indomethacin on the apical and basolateral sides (incubation of tissue for 30 min before the beginning of the experiment). Transepithelial Isc was calculated as μEq cm^−2 tissue surface area. The apical and basolateral solutions contained (in mM): 116 NaCl, 25 NaHCO3, 1.2 CaCl2, 1.2 MgCl2, 2,4 […], 0,4 KH2PO4, 10 glucose and was gassed with 95% O2-5% CO2 (pH 7.4).

ΔF508-NBD1 of CFTR = ΔF508-NBD1 of CFTR (Homo sapiens, UniProt P13569, DEL508-508); assay type: binding
[3] = molecular target: recombinant, purified human NBD1 (nucleotide binding domain 1) of CFTR, wild type (human, UniProt P13569 389-678)
[4] = molecular target: human ΔF508-NBD1 (NBD1 domain of CFTR with deletion of Phe508) (human, UniProt P13569 389-678)
human ΔF508-NBD1 (NBD1 domain of CFTR with deletion of Phe508), sequence (P13569 other isoform, or with tags, fused parts or gaps mutant limits assumed): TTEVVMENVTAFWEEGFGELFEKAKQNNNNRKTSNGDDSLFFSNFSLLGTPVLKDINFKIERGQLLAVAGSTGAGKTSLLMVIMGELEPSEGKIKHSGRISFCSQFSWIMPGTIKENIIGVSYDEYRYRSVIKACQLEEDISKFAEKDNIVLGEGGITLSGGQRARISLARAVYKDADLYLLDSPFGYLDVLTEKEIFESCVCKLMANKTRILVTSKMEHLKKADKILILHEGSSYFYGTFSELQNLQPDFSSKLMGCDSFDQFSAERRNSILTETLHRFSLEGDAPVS

recombinant, purified human NBD1 (nucleotide binding domain 1) of CFTR, wild type, sequence (P13569 389-678 limits assumed): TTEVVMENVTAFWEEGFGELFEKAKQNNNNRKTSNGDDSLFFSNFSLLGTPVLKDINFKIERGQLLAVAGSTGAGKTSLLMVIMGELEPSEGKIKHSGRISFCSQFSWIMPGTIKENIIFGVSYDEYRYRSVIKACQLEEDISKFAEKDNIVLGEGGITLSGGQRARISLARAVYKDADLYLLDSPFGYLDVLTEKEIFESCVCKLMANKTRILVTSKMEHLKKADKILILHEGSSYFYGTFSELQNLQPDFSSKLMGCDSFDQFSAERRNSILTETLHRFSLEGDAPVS
ΔF508-CFTR, sequence (P13569 with tags, fused parts or gaps DEL508-508): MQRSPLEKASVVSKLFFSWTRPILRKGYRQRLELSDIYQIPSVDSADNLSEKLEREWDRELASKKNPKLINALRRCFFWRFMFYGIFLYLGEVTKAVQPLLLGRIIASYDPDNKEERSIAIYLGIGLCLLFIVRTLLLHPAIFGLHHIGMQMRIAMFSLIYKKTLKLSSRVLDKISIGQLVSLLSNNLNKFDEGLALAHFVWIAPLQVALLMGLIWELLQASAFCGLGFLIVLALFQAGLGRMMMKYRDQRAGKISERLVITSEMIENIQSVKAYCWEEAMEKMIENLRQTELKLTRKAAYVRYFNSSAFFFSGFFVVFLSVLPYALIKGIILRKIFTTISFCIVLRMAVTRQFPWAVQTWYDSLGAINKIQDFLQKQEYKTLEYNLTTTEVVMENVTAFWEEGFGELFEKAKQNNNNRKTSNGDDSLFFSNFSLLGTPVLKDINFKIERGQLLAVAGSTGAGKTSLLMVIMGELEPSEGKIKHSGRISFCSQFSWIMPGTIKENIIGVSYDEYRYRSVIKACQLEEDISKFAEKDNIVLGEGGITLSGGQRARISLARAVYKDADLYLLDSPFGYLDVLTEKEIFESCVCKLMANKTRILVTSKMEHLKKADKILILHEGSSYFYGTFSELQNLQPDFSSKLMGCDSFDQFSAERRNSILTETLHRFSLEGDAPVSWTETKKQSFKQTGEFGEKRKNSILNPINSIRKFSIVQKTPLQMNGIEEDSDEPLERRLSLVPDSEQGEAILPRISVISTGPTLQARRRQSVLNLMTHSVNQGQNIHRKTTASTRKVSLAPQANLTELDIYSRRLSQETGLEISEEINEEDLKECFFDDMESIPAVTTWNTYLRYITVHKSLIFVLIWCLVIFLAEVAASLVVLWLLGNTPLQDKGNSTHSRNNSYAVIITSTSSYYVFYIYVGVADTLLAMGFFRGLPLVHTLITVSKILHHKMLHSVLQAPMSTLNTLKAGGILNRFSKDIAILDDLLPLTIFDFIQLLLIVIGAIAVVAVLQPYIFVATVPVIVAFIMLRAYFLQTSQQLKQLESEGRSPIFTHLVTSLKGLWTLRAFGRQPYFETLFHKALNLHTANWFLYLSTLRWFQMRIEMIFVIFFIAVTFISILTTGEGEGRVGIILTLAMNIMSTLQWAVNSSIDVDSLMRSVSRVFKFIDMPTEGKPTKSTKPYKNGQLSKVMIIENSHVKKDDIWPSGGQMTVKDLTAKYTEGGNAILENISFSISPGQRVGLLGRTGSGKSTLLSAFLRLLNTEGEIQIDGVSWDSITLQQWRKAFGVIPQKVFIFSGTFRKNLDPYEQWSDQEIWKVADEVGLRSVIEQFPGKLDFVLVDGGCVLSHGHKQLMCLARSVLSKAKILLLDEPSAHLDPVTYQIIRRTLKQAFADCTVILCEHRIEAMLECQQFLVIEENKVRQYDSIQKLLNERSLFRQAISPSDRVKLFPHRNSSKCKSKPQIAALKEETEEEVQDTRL
ΔF508-NBD1 of CFTR, sequence (P13569 with tags, fused parts or gaps DEL508-508 limits assumed): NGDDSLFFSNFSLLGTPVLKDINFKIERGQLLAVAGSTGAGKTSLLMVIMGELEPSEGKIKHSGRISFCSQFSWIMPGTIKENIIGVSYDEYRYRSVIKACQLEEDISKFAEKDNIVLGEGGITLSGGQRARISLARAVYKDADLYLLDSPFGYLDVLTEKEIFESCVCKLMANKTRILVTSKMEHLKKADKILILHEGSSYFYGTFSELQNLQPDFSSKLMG
CFTR channels (WT-CFTR), sequence (P13569 whole entry, the tested form may be a part): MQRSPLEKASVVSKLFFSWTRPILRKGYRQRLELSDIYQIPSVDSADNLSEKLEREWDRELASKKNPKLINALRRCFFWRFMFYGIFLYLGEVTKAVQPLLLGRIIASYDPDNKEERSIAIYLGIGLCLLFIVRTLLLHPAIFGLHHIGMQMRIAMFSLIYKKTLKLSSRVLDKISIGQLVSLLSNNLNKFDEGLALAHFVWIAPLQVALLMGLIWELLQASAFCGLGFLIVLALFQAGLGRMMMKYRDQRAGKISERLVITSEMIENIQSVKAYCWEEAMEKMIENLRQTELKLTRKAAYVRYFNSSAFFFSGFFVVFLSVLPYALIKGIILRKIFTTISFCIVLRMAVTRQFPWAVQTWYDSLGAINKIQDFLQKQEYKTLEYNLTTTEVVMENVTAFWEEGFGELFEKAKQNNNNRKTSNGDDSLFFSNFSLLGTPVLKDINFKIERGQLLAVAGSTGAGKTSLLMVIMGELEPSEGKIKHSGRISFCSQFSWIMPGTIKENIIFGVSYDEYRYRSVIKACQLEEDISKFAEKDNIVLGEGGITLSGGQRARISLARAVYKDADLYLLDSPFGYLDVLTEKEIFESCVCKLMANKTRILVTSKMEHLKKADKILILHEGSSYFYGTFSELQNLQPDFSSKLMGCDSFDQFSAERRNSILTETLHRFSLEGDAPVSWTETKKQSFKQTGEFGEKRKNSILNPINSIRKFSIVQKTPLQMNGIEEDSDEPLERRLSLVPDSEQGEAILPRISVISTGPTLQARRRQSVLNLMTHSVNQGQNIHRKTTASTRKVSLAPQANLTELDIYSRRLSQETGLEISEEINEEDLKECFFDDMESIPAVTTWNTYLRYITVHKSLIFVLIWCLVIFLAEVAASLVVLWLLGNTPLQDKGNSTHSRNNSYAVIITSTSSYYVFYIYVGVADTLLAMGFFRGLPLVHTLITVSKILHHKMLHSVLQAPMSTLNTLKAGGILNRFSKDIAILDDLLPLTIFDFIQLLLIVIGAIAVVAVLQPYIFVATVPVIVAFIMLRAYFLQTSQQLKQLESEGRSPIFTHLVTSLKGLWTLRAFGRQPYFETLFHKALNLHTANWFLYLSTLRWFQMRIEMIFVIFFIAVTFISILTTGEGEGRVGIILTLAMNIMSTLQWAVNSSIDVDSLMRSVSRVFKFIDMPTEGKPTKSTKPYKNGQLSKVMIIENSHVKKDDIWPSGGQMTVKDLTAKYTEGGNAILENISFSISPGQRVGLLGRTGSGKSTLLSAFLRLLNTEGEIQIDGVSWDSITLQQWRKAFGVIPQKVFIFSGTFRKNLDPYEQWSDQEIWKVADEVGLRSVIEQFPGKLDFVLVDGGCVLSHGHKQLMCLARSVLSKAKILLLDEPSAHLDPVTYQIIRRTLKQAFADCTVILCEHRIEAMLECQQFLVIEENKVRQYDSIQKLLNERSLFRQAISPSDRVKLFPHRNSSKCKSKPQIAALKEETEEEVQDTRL
CFTR (WT-CFTR) Cl− channel, sequence (P13569 whole entry): as the sequence (P13569 whole entry, the tested form may be a part) above

Q: Which “inhibition of the CB-potentiated current” value (ΔF508-CFTR) does the source give for glyH101 here?
A: The value was “inhibited”.

Q: For `CCCCC/C=C\C/C=C\C/C=C\C/C=C\CCCC(=O)O` [arachidonic acid], which “effect on IcAMP (CFTR-Cl− current)” value [1] is on record?
A: Its value is “no effect on IcAMP”.

Q: `COc1ccc(Cl)cc1C(=O)NCCc1ccc(S(=O)(=O)NC(=O)NC2CCCCC2)cc1` [glibenclamide] was tested. Which “inhibition of the activated channels” value (CFTR channels (WT-CFTR)) did it give?
A: Its value is “inhibited”.

Q: And the “inhibition of the CB-potentiated current” value (ΔF508-CFTR)?
A: The value was “only slightly”.

Q: How did the “inhibition of the CB-induced Isc increase” value [2] turn out when `CCCCNc1cc(C(=O)O)cc(S(N)(=O)=O)c1Oc1ccccc1` [bumetanide] was run?
A: Its value is “inhibited”.

Q: For NAVPFYAFYGCYCGWGGQ, which “binding of peptide to mutated NBD1” value (ΔF508-NBD1 of CFTR) is on record?
A: Its value is “has shown interaction; also recorded: interacts with ΔF508-NBD1”.

Q: And the “Cl− channel current” value (Cl— channel current)?
A: The value was “increased; also recorded: increases Cl— channel current”.

B1: recombinant human non-pancreatic secreted phospholipase A2 group IIA (enzyme, UniProt P14555 21-144, looked up)
chain: NLVNFHRMIKLTTGKEAALSYGFYGCHCGVGGRGSPKDATDRCCVTHDCCYKRLEKRGCGTKFLSYKFSNSGSRITCAKQDSCRSQLCECDKAAATCFARNKTTYNKKYQYYSNKHCRGSTPRC
Q: Which results are given for B1?
A: Kd [3]: 35 nM; koff [3]: 0.0021 s⁻¹; kon [3]: 59000 M⁻¹ s⁻¹; Kd [4]: 37 nM; koff [4]: 0.0066 s⁻¹; kon [4]: 180000 M⁻¹ s⁻¹

From patent US20190391160A1 (INSTITUT PASTEUR, published 2019)
